Values quoted from earlier work in publication PMC11974678 (bioRxiv, 2025).

Molecular target: T1, FABP1 (Homo sapiens, UniProt P07148)
T1 sequence (P07148 with tags, fused parts or gaps): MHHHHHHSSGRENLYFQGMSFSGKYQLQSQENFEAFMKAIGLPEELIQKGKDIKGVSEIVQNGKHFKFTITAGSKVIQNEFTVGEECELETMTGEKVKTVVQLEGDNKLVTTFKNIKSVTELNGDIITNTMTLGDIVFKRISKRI
Conditions: read-out: KD of binding to FABP1

O=C(O)C(F)(F)C(F)(F)C(F)(F)C(F)(F)C(F)(F)C(F)(F)C(F)(F)F [335-67-1, perfluorooctanoic acid]
Kd: 18.8 µM
